{
  "source": "patent US20040054014A1",
  "about": "“Method and pharmaceutical compositions forthe treatment of cancer” (priority 2002, published 2004)",
  "key": {"[1]": {"test_system": "PANC-1, C6, MCF-7, U20S and HT1080 cell lines", "conditions": "48 hours; for reduction in cell survival, drug alone: non-resistant cell lines, 0.1 μg/ml DOX, 0.3 μg/ml VIN"}, "P388/ADR cells [2]": {"test_system": "P388/ADR cells", "test": "Intracellular accumulation of Rhodamine-123, flow cytometry (system I)", "assay_type": "cell-based, murine", "conditions": "5 μM Rhodamine-123 + […] μM chemosensitizer, suspended cells", "source_text": "The cells were thereafter analyzed for intracellular fluorescence, using a flow cytometer (Becton-Dickinson, USA). Excitation and emission were at 485 nm and 547 nm, respectively."}, "P388/ADR cell line": {"test_system": "P388/ADR cell line", "test": "MTT cell viability, MDR-acquired cell line", "assay_type": "cell-based, murine", "conditions": "for increase in cell death, combined treatment with DOX: DOX (1, 5, 10 μg/ml) + 5 μM chemosensitizer", "protocol": "(§1) After 4 hours incubation, the treatment media was replaced with CS- and CT-free media and the experiment was terminated 24 hours later."}, "C-26 cells [3]": {"test_system": "C-26 cells", "test": "Intracellular accumulation of Rhodamine-123, confocal microscopy (system II)", "assay_type": "cell-based, murine", "conditions": "5 μM Rhodamine-123 + […] μM chemosensitizer, monolayers", "protocol": "(§2) At the end of the incubation time, the cells were washed 6 times with PBS, fixed with a mounting medium (Mounting medium with anti-fading agents, Biomeda corp., CA, USA) and were analysed by Confocal microscopy (Zeiss LSM 510). Excitation was at 488 nm and emission was measured using a band pass filter of 505-550 nm."}, "C-26 cells [4]": {"test_system": "C-26 cells", "test": "Solid tumor model (inherent MDR)", "assay_type": "in vivo, mice", "conditions": "for solid tumor volume with time, single agent: fluoxetine 0.04 mg/kg daily oral alone, MMC or DOX 5 mg/kg i.v. alone", "protocol": "In the solid tumor model, MDR-inherent C-26 cells were injected into the animal's right-hind footpad.\nIn the solid tumor model, Mitomycin C (MMC) and Doxorubicin (DOX) were tested separately, each at a dose of 5 mg/kg body."}, "[5]": {"test_system": "B16F10 and C-26 cell lines", "conditions": "Mitomycin C 50 μg/ml or Doxorubicin 1.0 μg/ml with 15 μM fluoxetine"}, "C6 and PANC-1 cells": {"test_system": "C6 and PANC-1 cells", "design": "dose or concentration left out as unconfirmed", "conditions": "[…] μM fluoxetine alone, 24 hours"}, "P388/WT": {"test_system": "P388/WT", "test": "Intraperitoneal ascites model, non-resistant tumor, survival", "assay_type": "in vivo, mice", "conditions": "DOX 3 mg/kg + fluoxetine 0.04 mg/kg daily oral", "protocol": "(§3) P388/WT (non-resistant) or P388/ADR (MDR-acquired) murine leukemia cells were propagated in the peritoneum of BDF1 female mice by weekly transfer of 0.5 ml of peritoneal fluid containing 5×10^5 cells, to generate an intraperitoneal ascites model.\n(§4) In both models, Doxorubicin (DOX) was tested. Doses of 3 mg/kg body were injected into the lateral tail vain, 1, 5 and 9 days after tumor inoculation.\n(§5) Comparative experiments were run in parallel with the sensitive, non-resistant P388/WT model and the corresponding, MDR-acquired P388/ADR model. […] A group of untreated healthy animals was served as a control group. […] The fluoxetine was given in the drinking water, from tumor inoculation and on. Doxorubicin was injected into the lateral tail vain 1, 5 and 9 days post tumor inoculation. The effects of the various treatments on tumor response were monitored through animals' survival and animals' body weight. The latter was monitored in order to assess the treatment toxicity."}, "P388/WT cell line": {"test_system": "P388/WT cell line", "test": "MTT cell viability, non-resistant cell line", "assay_type": "cell-based, murine", "protocol": "as §1"}, "[6]": {"test": "Animals' body weight (treatment toxicity) in P388/WT and P388/ADR models", "assay_type": "in vivo, mice", "conditions": "fluoxetine 0.04 mg/kg daily oral only; DOX 3 mg/kg days 1, 5, 9; both tumor models", "protocol": "as §3, §4, §5"}, "[7]": {"conditions": "cited from earlier work"}, "P388/ADR": {"test_system": "P388/ADR", "test": "Intraperitoneal ascites model, MDR-acquired tumor, survival", "assay_type": "in vivo, mice", "conditions": "DOX 3 mg/kg + fluoxetine 0.04 mg/kg daily oral"}, "B16F10 cells": {"test_system": "B16F10 cells", "test": "Lung metastasis model (inherent MDR)", "assay_type": "in vivo, mice", "conditions": "for lung metastatic burden (lung weight, number of metastasis), single agent: Doxorubicin 10 mg/kg alone, chemosensitizer 0.04 mg/kg daily oral alone"}, "P388/ADR cells [8]": {"test_system": "P388/ADR cells", "test": "Intracellular accumulation of Doxorubicin, confocal microscopy (system II)", "assay_type": "cell-based, murine", "protocol": "as §2"}, "C6 cells": {"test_system": "C6 cells", "conditions": "cells loaded with 0.1 μg/ml DOX alone"}, "[9]": {"conditions": "fluoxetine alone 1-20 μM, 4 hours then 20 hours CS-free media"}},
  "data": [
    {"smiles": "CC[C@]1(O)C[C@@H]2CN(CCc3c([nH]c4ccccc34)[C@@](C(=O)OC)(c3cc4c(cc3OC)N(C)[C@H]3[C@@](O)(C(=O)OC)[C@H](OC(C)=O)[C@]5(CC)C=CCN6CC[C@]43[C@@H]65)C2)C1", "note": "[Vinblastine]", "values": [
      {"measurement": "reduction in cell survival, drug alone", "setting": "[1]", "result": 50, "unit": "%"}
    ]},
    {"smiles": "COc1ccc(CCN(C)CCCC(C#N)(c2ccc(OC)c(OC)c2)C(C)C)cc1OC", "note": "(centres unmarked) [Verapamil]", "values": [
      {"measurement": "increase of intracellular Rhodamine-123 fluorescence vs chemosensitizer-free control", "setting": "P388/ADR cells [2]", "result": "about 60%"},
      {"measurement": "increase in cell death, combined treatment with DOX", "setting": "P388/ADR cell line", "result": "modest increase in cell death"},
      {"measurement": "intracellular accumulation of Rhodamine-123 (confocal images)", "setting": "C-26 cells [3]", "result": "an increase in the intracellular level of Rhodamine-123"}
    ]},
    {"smiles": "CNCCC(Oc1ccc(C(F)(F)F)cc1)c1ccccc1", "note": "(centres unmarked) [fluoxetine, N-methyl 3-(p-trifluoromethylphenoxy)-3-phenylpropylamine]", "values": [
      {"measurement": "survival prolonged vs saline, CS alone and CT alone", "setting": "C-26 cells [4]; DOX+CS (DOX 5 mg/kg, fluoxetine 0.04 mg/kg daily oral)", "result": 3, "unit": "fold"},
      {"measurement": "survival prolonged vs saline, CS alone and CT alone", "setting": "C-26 cells [4]; MMC+CS (MMC 5 mg/kg, fluoxetine 0.04 mg/kg daily oral)", "result": 2, "unit": "fold"},
      {"measurement": "solid tumor growth, combination therapy", "setting": "C-26 cells [4]; fluoxetine 0.04 mg/kg daily oral + MMC or DOX 5 mg/kg", "result": "tumor growth is significantly slower"},
      {"measurement": "solid tumor volume with time, single agent", "setting": "C-26 cells [4]", "result": "increases fast and exponentially"},
      {"measurement": "cell death, combination of the drug and fluoxetine", "setting": "[5]", "result": "80-90%"},
      {"measurement": "increase of intracellular Rhodamine-123 fluorescence vs chemosensitizer-free control", "setting": "P388/ADR cells [2]", "result": "about 200%"},
      {"measurement": "effect on cell survival", "setting": "C6 and PANC-1 cells", "result": "does not affect cell survival at all"},
      {"measurement": "toxicity to the cells", "setting": "[1]; fluoxetine alone, 0-15 μM", "result": "not toxic to the cells"},
      {"measurement": "increase in cell death, combined treatment with DOX", "setting": "P388/ADR cell line", "result": "significant increase"},
      {"measurement": "increase in cell death as compared with Verapamil and CsA", "setting": "P388/ADR cell line; DOX + 5 μM fluoxetine vs DOX + 5 μM Verapamil or CsA", "result": "2-3 fold"},
      {"measurement": "effect on cells viability", "setting": "P388/ADR cell line; [9]", "result": "no effect on cells viability"},
      {"measurement": "animals' survival, combined DOX and fluoxetine", "setting": "P388/WT", "result": "had no effect on animal's survival"},
      {"measurement": "effect of combination treatment on level of cells death", "setting": "P388/WT cell line; DOX with 5 μM fluoxetine vs DOX alone", "result": "had no effect on the level of cells death"},
      {"measurement": "effect on cells viability", "setting": "P388/WT cell line; [9]", "result": "no effect on cells viability"},
      {"measurement": "change in body weight, single agent", "setting": "[6]", "result": "no weight loss"},
      {"measurement": "safe, substantially side effect-free daily dose range", "setting": "[7]", "result": "10-15 mg/M^2"},
      {"measurement": "elongated life span, combination of fluoxetine and DOX", "setting": "P388/ADR", "result": "more than 2 fold"},
      {"measurement": "survival, CS alone", "setting": "B16F10 cells; 75-days experiment", "result": "died rather early"},
      {"measurement": "survival, combination treatment", "setting": "B16F10 cells; CS + Doxorubicin, 75-days experiment", "result": "long survivors"},
      {"measurement": "lung metastatic burden (lung weight, number of metastasis), single agent", "setting": "B16F10 cells", "result": "highest metastatic burden"},
      {"measurement": "lung metastatic burden, combination treatment", "setting": "B16F10 cells; chemosensitizer + Doxorubicin 10 mg/kg", "result": "substantial reduction"},
      {"measurement": "intracellular accumulation of Rhodamine-123 (confocal images)", "setting": "C-26 cells [3]", "result": "substantially higher increase in the intracellular accumulation of Rhodamine-123"},
      {"measurement": "intracellular level of DOX (confocal images)", "setting": "P388/ADR cells [8]; 5 μg/ml Doxorubicin + 5 μM fluoxetine, monolayers", "result": "substantial increase in the intracellular level of DOX"}
    ]},
    {"smiles": "COc1cccc2c1C(=O)c1c(O)c3c(c(O)c1C2=O)C[C@@](O)(C(=O)CO)C[C@@H]3O[C@H]1C[C@H](N)[C@H](O)[C@H](C)O1", "note": "[Doxorubicin]", "values": [
      {"measurement": "solid tumor volume with time, single agent", "setting": "C-26 cells [4]", "result": "increases fast and exponentially"},
      {"measurement": "reduction in cell survival, drug alone", "setting": "[1]", "result": 50, "unit": "%"},
      {"measurement": "cell death", "setting": "P388/ADR cell line; 5 μg/ml DOX alone", "result": "< 20", "unit": "%"},
      {"measurement": "cell death", "setting": "P388/ADR cell line; doubled drug concentration (10 μg/ml DOX) alone", "result": "about 30%"},
      {"measurement": "cell death", "setting": "P388/WT cell line; 0.5 μg/ml DOX alone", "result": "about 50%"},
      {"measurement": "cell death", "setting": "P388/WT cell line; 5 μg/ml DOX alone", "result": 100, "unit": "%"},
      {"measurement": "change in body weight, single agent", "setting": "[6]", "result": "minor weight decrease"},
      {"measurement": "time for complete depletion of intracellular DOX", "setting": "C6 cells", "result": "≤ 2", "unit": "h"},
      {"measurement": "lung metastatic burden (lung weight, number of metastasis), single agent", "setting": "B16F10 cells", "result": "only a mild reduction in the metastatic burden"},
      {"measurement": "intracellular accumulation of doxorubicin alone (confocal images)", "setting": "P388/ADR cells [8]; 5 μg/ml Doxorubicin alone", "result": "quite poor"}
    ]},
    {"smiles": "CO[C@@]12[C@H](COC(N)=O)C3=C(C(=O)C(C)=C(N)C3=O)N1C[C@@H]1N[C@@H]12", "note": "[Mitomycin C]", "values": [
      {"measurement": "solid tumor volume with time, single agent", "setting": "C-26 cells [4]", "result": "increases fast and exponentially"}
    ]}
  ]
}
